Data from US8557821B2 (priority 2009, dated 2013).
Several values for one entry are separate records, joined by “and”; a condition that tells them apart may be missing. Equal values may be shown once.

Legend:
Phytophthora infestans = assay: whole plant or invertebrate; assay type: in vivo; details: in Solanum lycopersicum, foliar, read-out: disease control
Plasmopara viticola = assay: Plasmopara viticola/Grape/Leaf Disc Preventative (Grape Downy Mildew); assay type: in vivo; details: foliar, grape vine leaf disks, inoculated 1 day after application, assessed 6-8 days after application, read-out: disease control
Procedure: Plasmopara viticola/Grape/Leaf Disc Preventative (Grape Downy Mildew)
Grape vine leaf disks are placed on water agar in multiwell plates (24-well format) and sprayed with the formulated test compound diluted in water. The leaf disks are inoculated with a spore suspension of the fungus 1 day after application. The inoculated leaf disks are incubated at 19° C. and 80% rh under a light regime of 12 h light/12 h darkness in a climate cabinet and the activity of a compound is assessed as percent disease control compared to untreated when an appropriate level of disease damage appears in untreated check leaf disks (6-8 days after application).

SMILES | pest or weed control at 200 ppm (Phytophthora infestans) | pest or weed control at 200 ppm (Plasmopara viticola) | melting point
Cc1cc(C(F)(F)F)nn1CC(=O)N1CCC(c2nc(NC(=O)[C@@H]3CCCc4ccccc43)cs2)CC1 [I.g.001, (R)-1,2,3,4-tetrahydro-naphthalene-1-carboxylic acid (2-{1-[2-(5-methyl-3-trifluoromethyl-pyrazol-1-yl)-acetyl]-piperidin-4-yl}-thiazol-4-yl)amide] | ≥ 80% | ≥ 80% | 175 °C
Cc1cc(C(F)(F)F)nn1CC(=O)N1CCC(c2nc(NC(=O)C3CCCc4ccccc43)cs2)CC1 (centres unmarked) [I.g.011, 1,2,3,4-tetrahydro-naphthalene-1-carboxylic acid (2-{1-[2-(5-methyl-3-trifluoromethyl-pyrazol-1-yl)-acetyl]-piperidin-4-yl}-thiazol-4-yl)amide] | ≥ 80% | ≥ 80% | 179 to 181 °C and 179.2 to 181.3 °C
Cc1cc(C(F)(F)F)nn1CC(=O)N1CCC(c2nc(NC(=O)OC3CCCc4ccccc43)cs2)CC1 (centres unmarked) [I.g.013, (2-{1-[2-(5-methyl-3-trifluoromethyl-pyrazol-1-yl)-acetyl]-piperidin-4-yl}-thiazol-4-yl)-carbamic acid 1,2,3,4-tetrahydro-naphthalen-1-yl ester] | ≥ 80% | ≥ 80% | 
Cc1cc(C(F)(F)F)nn1CC(=O)N1CCC(c2nc(NC(=O)Nc3ccccc3)cs2)CC1 [I.g.024, 1-(2-{1-[2-(5-methyl-3-trifluoromethyl-pyrazol-1-yl)-acetyl]-piperidin-4-yl}-thiazol-4-yl)-3-phenyl-urea] | ≥ 80% | ≥ 80% | 192.6 °C
Cc1ccc(C)c(CC(=O)N2CCC(c3nc(NC(=O)C4CCCc5ccccc54)cs3)CC2)c1 (centres unmarked) [I.g.136, 1,2,3,4-tetrahydro-naphthalene-1-carboxylic acid (2-{1-[2-(2,5-dimethylphenyl)-acetyl]-piperidin-4-yl}-thiazol-4-yl)-amide] | ≥ 80% |  | 
Cc1ccc(C)c(CS(=O)(=O)N2CCC(c3nc(NC(=O)c4ccccc4)cs3)CC2)c1 [I.g.246, N-{2-[1-(2,5-Dimethyl-phenylmethanesulfonyl)-piperidin-4-yl]-thiazol-4-yl}-benzamide] |  | ≥ 80% | 173 to 175 °C
Cc1ccccc1CC(=O)N1CCC(c2nc(NC(=O)C3CCCc4ccccc43)cs2)CC1 (centres unmarked) [I.g.386, 1,2,3,4-tetrahydro-naphthalene-1-carboxylic acid {2-[1-(2-o-tolyl-acetyl)-piperidin-4-yl]thiazol-4-yl}-amide] | ≥ 80% | ≥ 80% | 174 to 175 °C
Cc1cc(C(F)(F)F)nn1CC(=O)N1CCC(c2nc(NC(=O)c3cccc(F)c3O)cs2)CC1 [I.g.501, 3-fluoro-2-hydroxy-N-(2-{1-[2-(5-methyl-3-trifluoromethyl-pyrazol-1-yl)-acetyl]-piperidin-4-yl}-thiazol-4-yl)-benzamide] | ≥ 80% | ≥ 80% | 
Cc1cc(C(F)(F)F)nn1CC(=O)N1CCC(c2nc(NC(=O)c3cccc(Br)c3O)cs2)CC1 [I.g.502, 3-bromo-2-hydroxy-N-(2-{1-[2-(5-methyl-3-trifluoromethyl-pyrazol-1-yl)-acetyl]-piperidin-4-yl}-thiazol-4-yl)-benzamide] |  |  | 193 to 195 °C
Cc1cc(C(F)(F)F)nn1CC(=O)N1CCC(c2nc(NC(=O)c3ccccc3O)cs2)CC1 [I.g.503, 2-hydroxy-N-(2-{1-[2-(5-methyl-3-trifluoromethyl-pyrazol-1-yl)-acetyl]-piperidin-4-yl}-thiazol-4-yl)-benzamide] | ≥ 80% | ≥ 80% | 
Cc1ccc(S(=O)(=O)Nc2ccccc2C(=O)Nc2csc(C3CCN(C(=O)Cn4nc(C(F)(F)F)cc4C)CC3)n2)cc1 [I.g.508, N-(2-{1-[2-(5-methyl-3-trifluoromethyl-pyrazol-1-yl)-acetyl]-piperidin-4-yl}-thiazol-4-yl)-2-(toluene-4-sulfonylamino)-benzamide] | ≥ 80% | ≥ 80% | 
COc1cccc(O)c1C(=O)Nc1csc(C2CCN(C(=O)Cn3nc(C(F)(F)F)cc3C)CC2)n1 [I.g.509, 2-methoxy-6-hydroxy-N-(2-{1-[2-(5-methyl-3-trifluoromethyl-pyrazol-1-yl)-acetyl]-piperidin-4-yl}-thiazol-4-yl)-benzamide] | ≥ 80% | ≥ 80% | 
Cc1cc(C(F)(F)F)nn1CC(=O)N1CCC(c2nc(NC(=O)c3c(O)cccc3F)cs2)CC1 [I.g.510, 2-fluoro-6-hydroxy-N-(2-{1-[2-(5-methyl-3-trifluoromethyl-pyrazol-1-yl)-acetyl]-piperidin-4-yl}-thiazol-4-yl)-benzamide] | ≥ 80% | ≥ 80% | 
COc1cccc(C(=O)Nc2csc(C3CCN(C(=O)Cn4nc(C(F)(F)F)cc4C)CC3)n2)c1O [I.g.511, 3-methoxy-2-hydroxy-N-(2-{1-[2-(5-methyl-3-trifluoromethyl-pyrazol-1-yl)-acetyl]-piperidin-4-yl}-thiazol-4-yl)-benzamide] | ≥ 80% |  | 
Cc1cc(C(F)(F)F)nn1CC(=O)N1CCC(c2nc(N(C)C(=O)C3CCCc4ccccc43)cs2)CC1 (centres unmarked) [I.h.011, 1,2,3,4-tetrahydro-naphthalene-1-carboxylic acid methyl-(2-{1-[2-(5-methyl-3-trifluoromethyl-pyrazol-1-yl)-acetyl]-piperidin-4-yl}-thiazol-4-yl)-amide] | ≥ 80% |  | 
Cc1cc(C(F)(F)F)nn1CC(=O)N1CCN(c2nc(NC(=O)C3CCCc4ccccc43)cs2)CC1 (centres unmarked) [I.n.011, 1,2,3,4-Tetrahydro-naphthalene-1-carboxylic acid (2-{4-[2-(5-methyl-3-trifluoromethyl-pyrazol-1-yl)acetyl]-piperazin-1-yl}-thiazol-4-yl)amide] | ≥ 80% | ≥ 80% | 207 to 209 °C
Cc1cc(C(F)(F)F)nn1CC(=O)N1CCN(c2nc(NC(=O)c3ccccc3)cs2)CC1 [I.n.021, N-(2-{4-[2-(5-methyl-3-trifluoromethyl-pyrazol-1-yl)-acetyl]-piperazin-1-yl}-thiazol-4-yl)-benzamide] | ≥ 80% | ≥ 80% | 
